Reference: patent US6518278B1, “Carcinostatic substance for compatible administration, process of administrating same and process of rapidly inspecting same” (Debio Pharm S.A., priority 1994, dated 2003)
Entries after “also recorded” stand apart in the source; their conditions may differ.

What was measured:
[1] = test system: human leutecyte strain cell (RPMI-8402); test: Extinction effect of compatible administration of l-OHP and a compatible agent on tumor cells (compatible efficiency OE); assay type: cell-based; conditions: for Compatible Effects of l-OHP and Compatible Agent, Simultaneous Administration: both added day 1
Procedure, shortened: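 RPMI-8402 cells (10^6/ml, 15% fetal bovine serum) got l-OHP (5 or 1 μg/ml) with a partner agent at high or low dose (e.g. cisplatin 1 or 0.5, 5-FU 10 or 5 μg/ml; irinotecan fixed at 10 μg/ml) on the same day or staggered days 1–4 in either order. Cell kill was corrected for the untreated control. A combination index of 85–115% was scored additive, >115% synergistic.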

[2] = test system: K 562 parent cells (human bone marrow leukemia); test: Extinction rate, OR 36-3 and cisplatin, K 562 parent cells; assay type: cell-based; conditions: 2 μg/ml of the cisplatin, single
Protocol: (§1) The extinction rates were measured in accordance with the same procedures of Example 2 except that K 562 parent cells (human bone marrow leukemia) and its cisplatin resistance cells (K652/CDDP) were employed in place of the human leutecyte strain cell employed in Comparative Example 1 and Example 2, and cisplatin was employed in place of the vincristin.

[3] = test system: cisplatin resistance cells (K652/CDDP); test: Extinction rate, OR 36-3 and cisplatin, cisplatin resistance cells; assay type: cell-based, human; conditions: 5 μg/ml of the cisplatin, single; resistance cells versus K 562 parent cells
Protocol: as §1

[4] = larger dosage of compatible agent (μg/ml: cisplatin 1, 5-FU 10, irinotecane 10, adriamycin 0.05, vincristin 0.05, vindecin 0.05, etoposide 1, bleomycin 10, mitoxantrone 0.1, mitomycine 1), l-OHP 1 μg/ml (5 μg/ml with irinotecane) added day 1
[5] = larger dosage of compatible agent added day 1 (μg/ml: cisplatin 1, 5-FU 10, irinotecane 10, adriamycin 0.05, vincristin 0.05, vindecin 0.05, etoposide 1, bleomycin 10, mitoxantrone 0.1, mitomycine 1), l-OHP 1 μg/ml (5 μg/ml with irinotecane)
[6] = smaller dosage of compatible agent (μg/ml: cisplatin 0.5, 5-FU 5, irinotecane 10, adriamycin 0.01, vincristin 0.01, vindecin 0.01, etoposide 0.5, bleomycin 1, mitoxantrone 0.05, mitomycine 0.5), l-OHP 1 μg/ml added day 1
[7] = smaller dosage of compatible agent added day 1 (μg/ml: cisplatin 0.5, 5-FU 5, irinotecane 10, adriamycin 0.01, vincristin 0.01, vindecin 0.01, etoposide 0.5, bleomycin 1, mitoxantrone 0.05, mitomycine 0.5), l-OHP 1 μg/ml

## N.N.[Cl][Pt][Cl] [cisplatin]
[1]; compatible administration with l-OHP
  compatible administration effect with l-OHP, summary in words: the additive effect or the synergistic effect regardless of the administration method and the dosage in almost all the cases; also recorded: synergistic effects can be obtained in all the cases when the cisplatin and the l-OHP are simultaneously administrated and the l-OHP is administrated before the cisplatin; also recorded: effect about twice the expected value is obtained in most cases when the l-OHP administration is preceded and the cisplatin is added later
[1]; [4]
  Compatible Effects of l-OHP and Compatible Agent, Time Lag Administration, Addition Administration of Compatible Agent day 2: • (•: Synergistic Effect)
  Compatible Effects of l-OHP and Compatible Agent, Time Lag Administration, Addition Administration of Compatible Agent day 3: • (•: Synergistic Effect)
  Compatible Effects of l-OHP and Compatible Agent, Time Lag Administration, Addition Administration of Compatible Agent day 4: • (•: Synergistic Effect)
[1]; larger dosage of compatible agent (μg/ml: cisplatin 1, 5-FU 10, irinotecane 10, adriamycin 0.05, vincristin 0.05, vindecin 0.05, etoposide 1, bleomycin 10, mitoxantrone 0.1, mitomycine 1), l-OHP 1 μg/ml (5 μg/ml with irinotecane)
  Compatible Effects of l-OHP and Compatible Agent, Simultaneous Administration: • (•: Synergistic Effect)
[1]; [5]
  Compatible Effects of l-OHP and Compatible Agent, Time Lag Administration, Addition Administration of l-OHP day 2: • (•: Synergistic Effect)
  Compatible Effects of l-OHP and Compatible Agent, Time Lag Administration, Addition Administration of l-OHP day 3: ◯ (◯: Additive Effect)
  Compatible Effects of l-OHP and Compatible Agent, Time Lag Administration, Addition Administration of l-OHP day 4: ◯ (◯: Additive Effect)
[1]; [6]
  Compatible Effects of l-OHP and Compatible Agent, Time Lag Administration, Addition Administration of Compatible Agent day 2: • (•: Synergistic Effect)
  Compatible Effects of l-OHP and Compatible Agent, Time Lag Administration, Addition Administration of Compatible Agent day 3: • (•: Synergistic Effect)
  Compatible Effects of l-OHP and Compatible Agent, Time Lag Administration, Addition Administration of Compatible Agent day 4: • (•: Synergistic Effect)
[1]; smaller dosage of compatible agent (μg/ml: cisplatin 0.5, 5-FU 5, irinotecane 10, adriamycin 0.01, vincristin 0.01, vindecin 0.01, etoposide 0.5, bleomycin 1, mitoxantrone 0.05, mitomycine 0.5), l-OHP 1 μg/ml
  Compatible Effects of l-OHP and Compatible Agent, Simultaneous Administration: ◯ (◯: Additive Effect)
[1]; [7]
  Compatible Effects of l-OHP and Compatible Agent, Time Lag Administration, Addition Administration of l-OHP day 2: Δ (Δ: Below Additive Effect)
  Compatible Effects of l-OHP and Compatible Agent, Time Lag Administration, Addition Administration of l-OHP day 3: Δ (Δ: Below Additive Effect)
  Compatible Effects of l-OHP and Compatible Agent, Time Lag Administration, Addition Administration of l-OHP day 4: Δ (Δ: Below Additive Effect)
[2]
  extinction rate of the parent cells relative to that of the resistance cells: about twice
[3]
  extinction rates against the parent cells and the resistance cells compared: substantially the same as each other
